Test results: patent publication US20260001914A1, “MACROCYCLIC PEPTIDES TARGETING KRAS” (Merck Sharp & Dohme LLC, priority 2022, published 2026)
*1 amine or outer side, *2 acyl side, *3 side chain or, on linkers, in order; H or OH if unused. Where a SMILES comes first, the peptide text is derived from it. Bridges are numbered along the chain shown (N, C = ends). [ ]: non-standard residue; d: D form. Phe(4-guanidino) = N=C(N)Nc1ccc(C[C@H](N)C(=O)O)cc1; X23 = O=C([C@H](Cc1ccc(C(F)(F)F)nc1)N[*:1])[*:2]; Ala(pyrimidin-5-yl) = N[C@@H](Cc1cncnc1)C(=O)O; Gly(N-(CH2)3-guanidino) = N=C(N)NCCCNCC(=O)O; X39 = CN([C@@H](Cc1cccnc1F)C(=O)[*:2])[*:1]; NMeHis(τ-Me) = CN[C@@H](Cc1cn(C)cn1)C(=O)O; X3 = CN([C@@H](Cc1cncnc1)C(=O)[*:2])[*:1]; X10 = CS(=O)(=O)CCCCN(CC(=O)[*:2])[*:1]; X11 = CC(C)(F)CC[C@H](N[*:1])C(=O)[*:2]; NMeAha = CN[C@@H](CCN=[N+]=[N-])C(=O)O; Phe(4-F) = N[C@@H](Cc1ccc(F)cc1)C(=O)O; X28 = O=C([C@H](Cc1ncccn1)N[*:1])[*:2]; X47 = O=C([C@H](Cc1ccoc1)N[*:1])[*:2]; Ala(cPent) = N[C@@H](CC1CCCC1)C(=O)O; Phe(2-F) = N[C@@H](Cc1ccccc1F)C(=O)O; NMe3Pal = CN[C@@H](Cc1cccnc1)C(=O)O; NMeY = CN[C@@H](Cc1ccc(O)cc1)C(=O)O; X1 = O=C(C12CC(CN[*:1])(C1)C2)[*:2]; NMeCha = CN[C@@H](CC1CCCCC1)C(=O)O; Aha = [N-]=[N+]=NCC[C@H](N)C(=O)O; Ala(cPr) = N[C@@H](CC1CC1)C(=O)O; NMeF = CN[C@@H](Cc1ccccc1)C(=O)O; PhLac = O=C(O)[C@@H](O)Cc1ccccc1; 3Pal = N[C@@H](Cc1cccnc1)C(=O)O; Gly(N(CH2)3NH2) = NCCCNCC(=O)O; Ahp(2) = CCCCC[C@H](N)C(=O)O; Cba = N[C@@H](CC1CCC1)C(=O)O; hLeu = CC(C)CC[C@H](N)C(=O)O; NMeS = CN[C@@H](CO)C(=O)O; αMeC = C[C@](N)(CS)C(=O)O; NMeA = CN[C@@H](C)C(=O)O; Nle = CCCC[C@H](N)C(=O)O

The compounds below were run against phosphorylation levels of ERK1/2 in AsPC-1 (homozygous KRAS-G12D) cells (Homo sapiens, UniProt P01116, G12D) (assay: Cellular phospho-ERK assay in AsPC-1 cells (Alpha Screen), assay medium without fetal bovine serum). Conditions: phospho-ERK AlphaScreen, 18 h.
Type: cell-based
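Further: signal taken as phospho-ERK over total ERK per well, both detected in one multiplex bead assay, EC50 from four-parameter logistic fit of dose-response curves.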
Protocol: Assay plate was incubated at 37° C. 5% CO2 for the indicated length of time. […] Phosphorylated ERK and total ERK levels were detected by Alpha SureFire Ultra Multiplex pERK kit (PerkinElmer MPSU-PTERK) using 5 μL, acceptor bead mix and 5 μL donor bead mix, both prepared following the manufacturer's protocol. Plates were sealed using aluminum sealing tape (Costar 07-200-683) during incubation at ambient temperature with constant shaking at 300 rpm for 1 h (both acceptor and donor). Assay plates were read on a Envision Xcite Multilabel Reader (PerkinElmer 1040900) at ambient temperature, with emission at 535 nm (Total ERK) and emission at 615 nm (Phospho ERK). Ratio of pERK vs total ERK in each well was used as the final readout. Dose response curves and EC50 were analyzed using a 4-parameter logistic equation in GraphPad Prism software.

phosphorylation levels of ERK1/2 in AsPC-1 (homozygous KRAS-G12D) cells, sequence (P01116 1-186 G12D): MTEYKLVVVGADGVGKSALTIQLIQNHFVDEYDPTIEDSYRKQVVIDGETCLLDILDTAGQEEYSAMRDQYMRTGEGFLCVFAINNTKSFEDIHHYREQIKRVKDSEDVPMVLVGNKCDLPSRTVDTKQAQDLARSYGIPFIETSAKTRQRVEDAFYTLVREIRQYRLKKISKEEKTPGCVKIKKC

Structure (SMILES) | EC50 [µM]
CCCC[C@@H]1NC(=O)[C@H](Cc2cncnc2)NC(=O)[C@H](C)N(C)C(=O)[C@H](Cc2ccccc2)OC(=O)C23CC(CNC(=O)[C@H](Cc4ccc(OC)cc4)N(C)C(=O)[C@H](CCCC)NC(=O)[C@H](Cc4ccccc4F)NC1=O)(C2)C3 [compound 175, cyclo(FLac-NMeA-PyrimAla-Nle-Phe2F-Nle-NMeYOMe-amBCP)] (cyclo([NMeA][Ala(pyrimidin-5-yl)][Nle][Phe(2-F)][Nle][NMeY](Me)[X1][PhLac])) | 0.439
CCCC[C@@H]1NC(=O)[C@H](Cc2cccnc2)NC(=O)[C@H](C)N(C)C(=O)[C@H](Cc2ccccc2)OC(=O)C23CC(CNC(=O)[C@H](CC4CCCCC4)N(C)C(=O)[C@H](CCCC)NC(=O)[C@H](Cc4ccccc4F)NC1=O)(C2)C3 [compound 232, cyclo(FLac-NMeA-3Pal-Nle-Phe2F-Nle-NMeCha-amBCP)] (cyclo([3Pal][Nle][Phe(2-F)][Nle][NMeCha][X1][PhLac][NMeA])) | > 50.8
CCCCC[C@@H]1NC(=O)[C@H](Cc2ccc(OC)cc2)NC(=O)[C@H](CC2CCC2)NC(=O)[C@H](Cc2cccnc2)NC(=O)[C@H](C)N(C)C(=O)[C@H](Cc2ccccc2)NC(=O)CSC[C@@](C)(C(N)=O)NC(=O)[C@H](Cc2ccccc2)N(C)C1=O [compound 158, cyclo(F-NMeA-3Pal-cBuA-TyrOMe-Ahp-NMeF-aMeCl-ClAc)] ({CH2CO}-F[NMeA][3Pal][Cba]Y(Me)[Ahp(2)][NMeF][αMeC]-NH2; thioether N-8) | > 50.8
CCCC[C@@H]1NC(=O)[C@H](Cc2ccccc2F)NC(=O)[C@H](CC(C)C)NC(=O)[C@H](Cc2cncnc2)NC(=O)[C@H](C)N(C)C(=O)[C@H](Cc2ccccc2)OC(=O)C23CC(CNC(=O)[C@H](Cc4cccnc4)N(C)C1=O)(C2)C3 [compound 129, cyclo(FLac-NMeA-PyrimAla-L-Phe2F-Nle-NMe3Pal-amBCP)] (cyclo([PhLac][NMeA][Ala(pyrimidin-5-yl)]L[Phe(2-F)][Nle][NMe3Pal][X1])) | > 50.8
CCCCC[C@@H]1NC(=O)[C@H](Cc2ccc(OC)cc2)NC(=O)[C@H](CC2CCC2)NC(=O)[C@H](Cc2cccnc2)NC(=O)[C@H](CCCNC(=N)N)NC(=O)[C@H](Cc2ccccc2)OC(=O)C23CC(CNC(=O)[C@H](Cc4ccccc4)N(C)C1=O)(C2)C3 [compound 211, cyclo(FLac-R-3Pal-cBuA-TyrOMe-Ahp-NMeF-amBCP)] (cyclo([PhLac]R[3Pal][Cba]Y(Me)[Ahp(2)][NMeF][X1])) | > 50.8
C[C@H]1C(=O)N[C@@H](Cc2cncnc2)C(=O)N[C@@H](CC2CC2)C(=O)N[C@@H](Cc2ccccc2F)C(=O)N[C@@H](CCC(C)(C)F)C(=O)N(C)[C@@H](Cc2ccccc2)C(=O)NCC23CC(C2)(C3)C(=O)O[C@@H](Cc2ccccc2)C(=O)N1C [compound 277, cyclo(FLac-NMeA-PyrimAla-cPrA-Phe2F-hL3F-NMeF-amBCP)] (cyclo([Ala(cPr)][Phe(2-F)][X11][NMeF][X1][PhLac][NMeA][Ala(pyrimidin-5-yl)])) | 0.793
CCCCC[C@@H]1NC(=O)[C@H](Cc2ccc(OC)cc2)NC(=O)[C@H](CC2CCC2)NC(=O)[C@H](Cc2cccnc2)NC(=O)[C@H](CCCNC(=N)N)NC(=O)[C@H](Cc2ccccc2)NC(=O)CSC[C@@](C)(C(N)=O)NC(=O)[C@H](Cc2cn(C)cn2)N(C)C1=O [compound 378, cyclo(F-R-3Pal-cBuA-TyrOMe-Ahp-NMeHis1Me-aMeCl-ClAc)] ({CH2CO}-FR[3Pal][Cba]Y(Me)[Ahp(2)][NMeHis(τ-Me)][αMeC]-NH2; thioether N-8) | > 50.8
CCCC[C@@H]1NC(=O)[C@H](Cc2cccnc2)NC(=O)[C@H](C)N(C)C(=O)[C@H](Cc2ccc(F)cc2)NC(=O)C23CC(CNC(=O)[C@H](Cc4cccnc4)N(C)C(=O)[C@H](CCCC)NC(=O)[C@H](Cc4ccccc4F)NC1=O)(C2)C3 [compound 167, cyclo(Phe4F-NMeA-3Pal-Nle-Phe2F-Nle-NMe3Pal-amBCP)] (cyclo([3Pal][Nle][Phe(2-F)][Nle][NMe3Pal][X1][Phe(4-F)][NMeA])) | 42.8
CCCC[C@@H]1NC(=O)[C@H](Cc2ccc(C(F)(F)F)nc2)NC(=O)[C@H](CCN=[N+]=[N-])N(C)C(=O)[C@H](Cc2ccccc2)OC(=O)C23CC(CNC(=O)[C@H](Cc4cccnc4)N(C)C(=O)[C@H](CCCC)NC(=O)[C@H](Cc4ccccc4F)NC1=O)(C2)C3 [compound 241, cyclo(FLac-NMeDabN3-4CF33Pal-Nle-Phe2F-Nle-NMe3Pal-amBCP)] (cyclo([NMe3Pal][X1][PhLac][NMeAha][X23][Nle][Phe(2-F)][Nle])) | 6.12
CC(C)CC[C@@H]1NC(=O)[C@H](Cc2ccccc2F)NC(=O)[C@H](CC2CC2)NC(=O)[C@H](Cc2cncnc2)NC(=O)[C@H](C)N(C)C(=O)[C@H](Cc2ccccc2)OC(=O)C23CC(CNC(=O)[C@H](Cc4cccnc4F)N(C)C1=O)(C2)C3 [compound 336, cyclo(FLac-NMeA-PyrimAla-cPrA-Phe2F-hL-NMe3Pal2F-amBCP)] (cyclo([Ala(cPr)][Phe(2-F)][hLeu][X39][X1][PhLac][NMeA][Ala(pyrimidin-5-yl)])) | 1.39
CCCC[C@@H]1NC(=O)[C@H](Cc2cccnc2)NC(=O)[C@H](C)N(C)C(=O)[C@H](Cc2ccccc2)OC(=O)C23CC(CNC(=O)[C@H](Cc4ccccc4)N(C)C(=O)[C@H](CCCC)NC(=O)[C@H](Cc4ccccc4F)NC1=O)(C2)C3 [compound 236, cyclo(FLac-NMeA-3Pal-Nle-Phe2F-Nle-NMeF-amBCP)] (cyclo([3Pal][Nle][Phe(2-F)][Nle][NMeF][X1][PhLac][NMeA])) | 1.44
CCCCC[C@@H]1NC(=O)[C@H](Cc2ccoc2)NC(=O)[C@H](CC2CCC2)NC(=O)[C@H](Cc2cccnc2)NC(=O)[C@H](CCCNC(=N)N)NC(=O)[C@H](Cc2ccccc2)NC(=O)CSC[C@@](C)(C(N)=O)NC(=O)[C@H](Cc2ccccc2)N(C)C1=O [compound 374, cyclo(F-R-3Pal-cBuA-Ala3Fur-Ahp-NMeF-aMeCl-ClAc)] ({CH2CO}-FR[3Pal][Cba][X47][Ahp(2)][NMeF][αMeC]-NH2; thioether N-8) | > 50.8
CCCC[C@@H]1NC(=O)[C@H](Cc2cncnc2)NC(=O)[C@H](CO)N(C)C(=O)[C@H](Cc2ccccc2)OC(=O)C23CC(CNC(=O)[C@H](Cc4cccnc4)N(C)C(=O)[C@H](CCCC)NC(=O)[C@H](Cc4ccccc4F)NC1=O)(C2)C3 [compound 119, cyclo(FLac-NMeS-PyrimAla-Nle-Phe2F-Nle-NMe3Pal-amBCP)] (cyclo([NMe3Pal][X1][PhLac][NMeS][Ala(pyrimidin-5-yl)][Nle][Phe(2-F)][Nle])) | > 50.8
CCCC[C@@H]1NC(=O)[C@H](C(C)C)NC(=O)[C@H](CC2CCC2)NC(=O)[C@H](Cc2cccnc2)NC(=O)[C@H](CCN=[N+]=[N-])NC(=O)[C@H](Cc2ccccc2)NC(=O)C23CC(CNC(=O)[C@H](Cc4cccnc4)N(C)C1=O)(C2)C3 [compound 113, cyclo(F-DabN3~3Pal-cBuA-V-Nle-NMe3Pal-amBCP)] (cyclo(F[Aha][3Pal][Cba]V[Nle][NMe3Pal][X1])) | > 50.8
CCCCC[C@@H]1NC(=O)[C@H](Cc2ccc(OC)cc2)NC(=O)[C@H](CC2CCC2)NC(=O)[C@H](Cc2cnn(C)c2)NC(=O)[C@H](CCCNC(=N)N)NC(=O)[C@H](Cc2ccccc2)NC(=O)CSC[C@@](C)(C(N)=O)NC(=O)[C@H](Cc2ccccc2)N(C)C1=O [compound 372, cyclo(F-R-Ala4PyzlMe-cBuA-TyrOMe-Ahp-NMeF-aMeCl-ClAc)] | > 50.8
CCCCC[C@@H]1NC(=O)[C@H](Cc2ccc(OC)cc2)NC(=O)[C@H](CC2CCC2)NC(=O)[C@H](Cc2ccc(NC(=N)N)cc2)NC(=O)CN(CCCNC(=N)N)C(=O)[C@H](Cc2ccccc2)NC(=O)CSC[C@@](C)(C(N)=O)NC(=O)[C@H](Cc2ccccc2)N(C)C1=O [compound 361, cyclo(F-NGnG-Phe4Gn-cBuA-TyrOMe-Ahp-NMeF-aMeCl-ClAc)] ({CH2CO}-F[Gly(N-(CH2)3-guanidino)][Phe(4-guanidino)][Cba]Y(Me)[Ahp(2)][NMeF][αMeC]-NH2; thioether N-8) | 39.7
CCCCC[C@@H]1NC(=O)[C@H](Cc2ccc(OC)cc2)NC(=O)[C@H](CC2CCC2)NC(=O)[C@H](Cc2ccc(N(C)C(=N)NC)cc2)NC(=O)[C@H](CCCNC(=N)N)NC(=O)[C@H](Cc2ccccc2)NC(=O)CSC[C@@](C)(C(N)=O)NC(=O)[C@H](Cc2ccccc2)N(C)C1=O [compound 382, cyclo(F-R-Phe4GnMeMe-cBuA-TyrOMe-Ahp-NMeF-aMeCl-ClAc)] | > 50.8
CC(C)CC[C@@H]1NC(=O)[C@H](Cc2ccccc2F)NC(=O)[C@H](CC2CCCC2)NC(=O)[C@H](Cc2cncnc2)NC(=O)[C@H](C)N(C)C(=O)[C@H](Cc2ccccc2)OC(=O)C23CC(CNC(=O)[C@H](Cc4cncnc4)N(C)C1=O)(C2)C3 [compound 335, cyclo(FLac-NMeA-PyrimAla-cPeA-Phe2F-hL-NMeAlaPyrim-amBCP)] (cyclo([Ala(cPent)][Phe(2-F)][hLeu][X3][X1][PhLac][NMeA][Ala(pyrimidin-5-yl)])) | 5.27
CCCC[C@@H]1NC(=O)[C@H](Cc2cccnc2)NC(=O)CN(CCCCS(C)(=O)=O)C(=O)[C@H](Cc2ccccc2)OC(=O)C23CC(CNC(=O)[C@H](Cc4cccnc4)N(C)C(=O)[C@H](CCCC)NC(=O)[C@H](Cc4ccccc4F)NC1=O)(C2)C3 [compound 407, cyclo(FLac-NOHmsbGly-3Pal-Nle-Phe2F-Nle-NMe3Pal-amBCP)] (cyclo([3Pal][Nle][Phe(2-F)][Nle][NMe3Pal][X1][PhLac][X10])) | > 50.8
CC(C)CC[C@@H]1NC(=O)[C@H](Cc2ccccc2F)NC(=O)[C@H](CC2CC2)NC(=O)[C@H](Cc2ncccn2)NC(=O)[C@H](C)N(C)C(=O)[C@H](Cc2ccccc2)OC(=O)C23CC(CNC(=O)[C@H](Cc4ccccc4)N(C)C1=O)(C2)C3 [compound 281, cyclo(FLac-NMeA-2PyrimAla-cPrA-Phe2F-hL-NMeF-amBCP)] (cyclo([Ala(cPr)][Phe(2-F)][hLeu][NMeF][X1][PhLac][NMeA][X28])) | 9.89
CCCCC[C@@H]1NC(=O)[C@H](Cc2ccc(OC)cc2)NC(=O)[C@H](CC2CCC2)NC(=O)[C@H](Cc2ccc(NC(=N)N)cc2)NC(=O)CN(CCCN)C(=O)[C@H](Cc2ccccc2)NC(=O)CSC[C@@](C)(C(N)=O)NC(=O)[C@H](Cc2ccccc2)N(C)C1=O [compound 388, cyclo(F-NPrNH2G-Phe4Gn-cBuA-TyrOMe-Ahp-NMeF-aMeCl-ClAc)] ({CH2CO}-F[Gly(N(CH2)3NH2)][Phe(4-guanidino)][Cba]Y(Me)[Ahp(2)][NMeF][αMeC]-NH2; thioether N-8) | > 50.8
